# Tests used:
# [1] = tested on: TMZ-resistant tumor cells; test: migration and invasion of TMZ-resistant tumor cells; assay type: cell-based
# [2] = tested on: TMZ-resistant U251 glioma cells; test: intracranial rodent xenograft tumor model, survival; assay type: in vivo, nude mice
# Text: TMZ-resistant U251 glioma cells (R) were implanted intracranially into nude mice. After 7 days, treatment was initiated. […] Survival was used as an endpoint; * signifies statistical significance (p<0.05).
# After 7 days, treatment was initiated.
# [3] = tested on: TMZ-resistant glioma cell lines; test: cytotoxicity of noscapine in TMZ-resistant glioma cell lines; assay type: cell-based
# [4] = in vivo, cited from earlier work
smiles,measurement,setting,value
"COc1ccc2c(c1OC)C(=O)O[C@@H]2[C@H]1c2c(cc3c(c2OC)OCO3)CCN1C [noscapine, (3S)-6,7-Dimethoxy-3-[(5R)-5,6,7,8-tetrahydro-4-methoxy-6-methyl-1,3-dioxolo (4,5-g)isoquinolin-5-yl]-1(3H)-isobenzofuranone]",invasion of TMZ-resistant tumor cells,[1],decreased
same,migration of TMZ-resistant tumor cells,[1],decreased
same,tumor growth,[2]; animal models,reduced tumor growth
same,survival of TMZ-resistant tumor bearing animals,"[2]; noscapine 225 mg/kg twice daily by gavage, treatment from day 7 after implantation",significantly enhanced survival
same,cell death,[3]; 4 different TMZ-resistant glioma cell lines,caused cell death
same,cell cycle arrest,"[3]; TMZ-resistant glioma cell lines, prolonged arrest causes cell cytotoxicity",caused an arrest in the G2/M phase of cell cycle
same,oral bioavailability,[4]; po,orally bioavailable
same,crossing of the blood-brain-barrier,[4],known to cross the blood-brain-barrier

# — patent US20140288115A1, “COMPOSITIONS AND METHODS FOR TREATING BRAIN CANCER” (UNIVERSITY OF SOUTHERN CALIFORNIA, priority 2011, published 2014)
